Read-outs that look alike come from different tables or passages of the source.
Columns and labels:
Type in all cases: in vivo
wheat = assay: Post-emergence herbicidal activity against cereal crops (wheat) +/- safener, crop selectivity; settings: 100%=total damage to plant, 0%=no damage; for Post-emergence herbicidal activity against wheat (percentage phytotoxicity), +CQC: 250 g/ha, plus safener cloquintocet-mexyl (CQC) applied at 50 g/ha; for percent phytotoxicity (crop damage) to wheat at 250 g/ha: Triticum aestivum, 360 h, without safener, read-out: Post-emergence herbicidal activity against wheat (percentage phytotoxicity), Wheat - CQC
Protocol: Seeds of a variety of monocotyledonous and dicotyledonous test plants are sown in standard soil in pots. The plants are cultivated for one day (for pre-emergence) or for about 12 days (for post-emergence) under controlled conditions in a glasshouse (warm climate species at 24/18° C., cool climate species at 20/16° C., both at day/night; 16 hours light; 65% humidity). The test plants are then grown on, in a glasshouse (greenhouse) under controlled conditions (warm climate species at 24/18° C., cool climate species at 20/16° C., both at day/night; 16 hours light; 65% humidity) and are watered twice daily. 15 days after application of the test herbicide (15DAA) (for post-emergence), and 20 days after application of the test herbicide (20DAA) (for pre-emergence), the test plants are evaluated visually, and an assessed percentage phytotoxicity score is given for each herbicidal application on each plant species (with 100%=total damage to plant; 0%=no damage to plant).

Lolium perenne (LOLPE) = assay: Glasshouse assay for herbicidal activity, pre-/post-emergence (percentage phytotoxicity); settings: Lolium perenne, Rate 250 g/ha, 100%=total damage, 0%=no damage
In short: (§1)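 Visual score (0–100% damage) at 15DAA post-em / 20DAA pre-em. Pots, std soil; treated 1 d (pre) or ~12 d (post) after sowing. 24/18 °C warm spp., 20/16 °C cool spp., 16 h light, 65% RH.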

Avena fatua (AVEFA) = assay: as above; settings: Avena fatua, Rate 250 g/ha, 100%=total damage, 0%=no damage
In short: as §1

[1] = tested on: Alopecurus myosuroides (ALOMY); assay: as above; settings: Alopecurus myosuroides, Rate 250 g/ha, 100%=total damage, 0%=no damage
In short: as §1

[2] = tested on: Echinochloa crus-galli (ECHCG); assay: as above; settings: Echinochloa crus-galli, Rate 250 g/ha, 100%=total damage, 0%=no damage
In short: as §1

[3] = post-emergence, 360 h, post-emergence, visual assessment 15 DAA, read-out: Post-emergence herbicidal activity (percentage phytotoxicity), LOLPE POST
[4] = pre-emergence, 480 h, pre-emergence, visual assessment 20 DAA, read-out: Pre-emergence herbicidal activity (percentage phytotoxicity), LOLPE PRE
[5] = post-emergence, 360 h, post-emergence, visual assessment 15 DAA, read-out: Post-emergence herbicidal activity (percentage phytotoxicity), AVEFA POST
[6] = pre-emergence, 480 h, pre-emergence, visual assessment 20 DAA, read-out: Pre-emergence herbicidal activity (percentage phytotoxicity), AVEFA PRE
[7] = 360 h, post-emergence, visual assessment 15 DAA, read-out: Post-emergence herbicidal activity (percentage phytotoxicity), ALOMY POST
[8] = 480 h, pre-emergence, visual assessment 20 DAA, read-out: Pre-emergence herbicidal activity (percentage phytotoxicity), ALOMY PRE
[9] = post-emergence, 360 h, post-emergence, visual assessment 15 DAA, read-out: Post-emergence herbicidal activity (percentage phytotoxicity), ECHCG POST
[10] = pre-emergence, 480 h, pre-emergence, visual assessment 20 DAA, read-out: Pre-emergence herbicidal activity (percentage phytotoxicity), ECHCG PRE

| Compound | Post-emergence herbicidal activity against wheat (percentage phytotoxicity), +CQC (wheat) [%] | percent phytotoxicity (crop damage) to wheat at 250 g/ha (wheat) [%] | pest or weed control at 250 g/ha (Lolium perenne (LOLPE); [3]) [%] | pest or weed control at 250 g/ha (Lolium perenne (LOLPE); [4]) [%] | pest or weed control at 250 g/ha (Avena fatua (AVEFA); [5]) [%] | pest or weed control at 250 g/ha (Avena fatua (AVEFA); [6]) [%] | pest or weed control at 250 g/ha [1, 7] [%] | pest or weed control at 250 g/ha [1, 8] [%] | pest or weed control at 250 g/ha [2, 9] [%] | pest or weed control at 250 g/ha [2, 10] [%] |
| --- | --- | --- | --- | --- | --- | --- | --- | --- | --- | --- |
| Cc1cc(C)c(C2C(=O)CC(CCNC(=O)Nc3ccc(F)cn3)C2=O)c(C)c1 (centres unmarked) [Compound A12] | 80 | 90 | 90 | 90 | 90 | 90 | 90 | 90 | 90 | 100 |
| Cc1cc(-c2ncc(Cl)cc2F)cc(C)c1C1C(=O)CC(CCNC(=O)N(C)c2ccccn2)C1=O.Cl (centres unmarked) [Compound A27] | 70 | 80 | 100 | 90 | 90 | 90 | 90 | 60 | 100 | 90 |
| Cc1cc(C)c(C2C(=O)CC(CCNc3nc4ccc(Cl)cc4o3)C2=O)c(C)c1.Cl (centres unmarked) [Compound A35] | 60 | 80 | 100 | 100 | 70 | 60 | 90 | 70 | 100 | 80 |
| Cc1cc(C)c(C2C(=O)CC(CCNC(=O)N3CCOCC3)C2=O)c(C)c1 (centres unmarked) [Compound A47] | 0 | 50 | 30 | 50 | 70 | 0 | 60 | 60 | 60 | 80 |
| Cc1cc(C)c(C2C(=O)CC(CCNC(=O)Nc3cc(C(F)(F)F)ccn3)C2=O)c(C)c1.Cl (centres unmarked) [Compound A2, 1-[2-[2,4-dioxo-3-(2,4,6-trimethylphenyl)cyclopentyl]ethyl]-3-[4-(trifluoromethyl)-2-pyridyl]urea] | 80 | 80 | 100 | 80 | 100 | 80 | 80 | 70 | 100 | 90 |
| Cc1cc(C)c(C2C(=O)CC(CCNc3ncc(C(F)(F)F)cc3Cl)C2=O)c(C)c1 (centres unmarked) [Compound A36] | 10 | 80 | 100 | 90 | 100 | 90 | 90 | 60 | 90 | 90 |
| Cc1cc(C)c(C2C(=O)CC(CCNc3ccc(C(F)(F)F)cn3)C2=O)c(C)c1 (centres unmarked) [Compound A34] | 70 | 80 | 90 | 100 | 90 | 80 | 90 | 90 | 100 | 100 |
| Cc1cc(C)c(C2C(=O)CC(CCNS(=O)(=O)c3cccs3)C2=O)c(C)c1 (centres unmarked) [Compound A82] | 0 | 0 | 50 | 70 | 30 | 0 | 40 | 70 | 20 | 30 |
| Cc1cc(C)c(C2C(=O)CC(CCNS(=O)(=O)c3ccccc3F)C2=O)c(C)c1 (centres unmarked) [Compound A76] | 0 | 0 | 60 | 70 | 20 | 0 | 20 | 30 | 40 | 40 |
| Cc1cc(C)c(C2C(=O)CC(CCNC(=O)NC(=O)c3ccc(C(F)(F)F)cc3F)C2=O)c(C)c1 (centres unmarked) [Compound A70] | 80 | 80 | 100 | 60 | 90 | 40 | 20 | 50 | 90 | 100 |
| Cc1cc(C)c(C2C(=O)CC(CCNC(=O)NC(=O)c3cccc(C(F)(F)F)c3)C2=O)c(C)c1 (centres unmarked) [Compound A66] | 40 | 80 | 80 | 40 | 30 | 0 | 70 | 20 | 60 | 10 |
| Cc1cc(C)c(C2C(=O)CC(CCNC(=S)Nc3ccccc3)C2=O)c(C)c1 (centres unmarked) [Compound A90, 1-[2-[2,4-dioxo-3-(2,4,6-trimethylphenyl)cyclopentyl]ethyl]-3-phenyl-thiourea] | 20 | 0 | 20 | 70 | 60 | 0 | 20 | 0 | 60 | 40 |
| CC#Cc1cc(C)c(C2C(=O)CC(CCNC(=O)N(C)c3ccccn3)C2=O)c(C)c1.Cl (centres unmarked) [Compound A22] | 30 | 80 | 90 | 100 | 100 | 100 | 80 | 70 | 100 | 100 |
| Cc1cc(C)c(C2C(=O)CC(CCNC(=O)NC(=O)c3cc(F)c(Cl)cc3Cl)C2=O)c(C)c1 (centres unmarked) [Compound A65] | 40 | 80 | 100 | 80 | 90 | 70 | 100 | 80 | 80 | 70 |
